The results in this text go back to patent publication US20240158446A1, “CYCLIC COMPOUND HAVING SELECTIVE INHIBITORY ACTION ON KRAS OVER HRAS AND NRAS” (CHUGAI SEIYAKU KABUSHIKI KAISHA, priority 2021, published 2024).

Assay [1] concerns the target GDP-bound NRAS wild-type protein (Homo sapiens, UniProt P01111). Kind of assay: Binding to NRAS by surface plasmon resonance (SPR), Single Cycle Kinetics. To be noted: SPR KD ratio NRAS/KRAS, class symbols.
In assay [2] the target is GDP-bound HRAS wild-type protein (Homo sapiens, UniProt P01112). In words: Binding to HRAS by surface plasmon resonance (SPR), Single Cycle Kinetics. To be noted: SPR KD ratio HRAS/KRAS, class symbols. (In general: In SPR one partner is held on a chip, and binding of the other changes the refractive index at the surface.)
Chain of GDP-bound HRAS wild-type protein (P01112 whole entry): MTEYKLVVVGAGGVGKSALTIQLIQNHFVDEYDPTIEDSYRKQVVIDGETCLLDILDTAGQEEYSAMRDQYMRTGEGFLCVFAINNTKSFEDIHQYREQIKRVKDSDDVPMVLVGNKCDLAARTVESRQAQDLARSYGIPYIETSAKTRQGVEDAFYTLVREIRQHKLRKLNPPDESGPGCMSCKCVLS

Chain of GDP-bound NRAS wild-type protein (P01111 whole entry): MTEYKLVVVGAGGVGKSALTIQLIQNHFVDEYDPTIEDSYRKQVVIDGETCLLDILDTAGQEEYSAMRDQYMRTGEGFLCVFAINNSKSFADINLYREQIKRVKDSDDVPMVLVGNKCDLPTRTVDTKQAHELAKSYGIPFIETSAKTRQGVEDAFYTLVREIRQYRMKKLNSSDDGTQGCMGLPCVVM

In the case of `CCC[C@H]1C(=O)N[C@@H]([C@@H](C)CC)C(=O)N(C)CC(=O)N(C)[C@H]2C/C=C\CCN(C2=O)[C@@H](Cc2ccc(C(F)(F)F)cc2)C(=O)N(C)CC(=O)N[C@@H](CCc2cc(Cl)c(C(F)F)c(Cl)c2)C(=O)N2C[C@H](OCC)C[C@H]2C(=O)NC2(CC(C)(C)C2)C(=O)N(C)[C@@H](C2CCCC2)C(=O)N(C)[C@H](C(=O)N(C)C)CC(=O)N1C` [PP2865], the “NRAS/KRAS (ratio of KD value with respect to GDP-bound NRAS wild-type protein to KD value with respect to KRAS)” value in assay [1] is “A (a compound having 10 or more and less than 20 is denoted as A)”. The “HRAS/KRAS (ratio of KD value with respect to GDP-bound HRAS wild-type protein to KD value with respect to KRAS)” value in assay [2] is “A (a compound having 10 or more and less than 20 is denoted as A)”.

On to `CCC[C@H]1C(=O)N[C@@H]([C@@H](C)CC)C(=O)N(C)CC(=O)N(C)[C@H]2C/C=C\CCN(C2=O)[C@@H](Cc2ccc(C(F)(F)F)cc2)C(=O)N(C)CC(=O)N[C@@H](CCc2cc(C)c(C(F)F)c(Cl)c2)C(=O)N2C[C@H](OCC)C[C@H]2C(=O)NC2(CC(C)(C)C2)C(=O)N(C)[C@@H](C2CCCC2)C(=O)N(C)[C@H](C(=O)N(C)C)CC(=O)N1C` [PP2866], for which, in assay [1], the “NRAS/KRAS (ratio of KD value with respect to GDP-bound NRAS wild-type protein to KD value with respect to KRAS)” value is “A (a compound having 10 or more and less than 20 is denoted as A)”. Moreover, the “HRAS/KRAS (ratio of KD value with respect to GDP-bound HRAS wild-type protein to KD value with respect to KRAS)” value in assay [2] is “A (a compound having 10 or more and less than 20 is denoted as A)”.

Regarding `CCC[C@H]1C(=O)N[C@@H]([C@@H](C)CC)C(=O)N(C)CC(=O)N(C)[C@H]2C/C=C\CCN(C2=O)[C@@H](Cc2ccc(C(F)(F)F)cc2)C(=O)N(C)CC(=O)N[C@@H](CCc2cc(F)c(C(F)F)c(OC)c2)C(=O)N2C[C@H](OCC)C[C@H]2C(=O)NC2(CC(C)(C)C2)C(=O)N(C)[C@@H](C2CCCC2)C(=O)N(C)[C@H](C(=O)N(C)C)CC(=O)N1C` [PP2867], in assay [1], the “NRAS/KRAS (ratio of KD value with respect to GDP-bound NRAS wild-type protein to KD value with respect to KRAS)” value was “A (a compound having 10 or more and less than 20 is denoted as A)”. Further, the “HRAS/KRAS (ratio of KD value with respect to GDP-bound HRAS wild-type protein to KD value with respect to KRAS)” value in assay [2] is “A (a compound having 10 or more and less than 20 is denoted as A)”.

As to `CCC[C@H]1C(=O)N[C@@H]([C@@H](C)CC)C(=O)N(C)CC(=O)N(C)[C@H]2C/C=C\CCN(C2=O)[C@@H](Cc2ccc(C(F)(F)F)cc2)C(=O)N(C)CC(=O)N[C@@H](CCc2ccc(C(F)F)c(OC)c2)C(=O)N2C[C@H](OCC)C[C@H]2C(=O)NC2(CC(C)(C)C2)C(=O)N(C)[C@@H](C2CCCC2)C(=O)N(C)[C@H](C(=O)N(C)C)CC(=O)N1C` [PP2868], the “NRAS/KRAS (ratio of KD value with respect to GDP-bound NRAS wild-type protein to KD value with respect to KRAS)” value in assay [1] is “A (a compound having 10 or more and less than 20 is denoted as A)”. The “HRAS/KRAS (ratio of KD value with respect to GDP-bound HRAS wild-type protein to KD value with respect to KRAS)” value in assay [2] is “A (a compound having 10 or more and less than 20 is denoted as A)”.

Regarding `CCC[C@H]1C(=O)N[C@@H]([C@@H](C)CC)C(=O)N(C)CC(=O)N(C)[C@H]2C/C=C\CCN(C2=O)[C@@H](Cc2ccc(C(F)(F)F)cc2)C(=O)N(C)CC(=O)N[C@@H](CCc2ccc(CC)c(OC)c2)C(=O)N2C[C@H](OCC)C[C@H]2C(=O)NC2(CC(C)(C)C2)C(=O)N(C)[C@@H](C2CCCC2)C(=O)N(C)[C@H](C(=O)N(C)C)CC(=O)N1C` [PP2869], the “NRAS/KRAS (ratio of KD value with respect to GDP-bound NRAS wild-type protein to KD value with respect to KRAS)” value in assay [1] was “A (a compound having 10 or more and less than 20 is denoted as A)”. In addition, the “HRAS/KRAS (ratio of KD value with respect to GDP-bound HRAS wild-type protein to KD value with respect to KRAS)” value in assay [2] is “A (a compound having 10 or more and less than 20 is denoted as A)”.

As for `CCC[C@H]1C(=O)N[C@@H]([C@@H](C)CC)C(=O)N(C2CC2)CC(=O)N(C)[C@H]2C/C=C\CCN(C2=O)[C@@H](Cc2ccc(C)cc2)C(=O)N(C)CC(=O)N[C@@H](CCc2ccc(C(F)(F)F)c(CC)c2)C(=O)N2C[C@H](OCC)C[C@H]2C(=O)NC2(CC(C)(C)C2)C(=O)N(C)[C@@H](C2CCCC2)C(=O)N(C)[C@H](C(=O)N(C)C)CC(=O)N1C` [PP2870], the “NRAS/KRAS (ratio of KD value with respect to GDP-bound NRAS wild-type protein to KD value with respect to KRAS)” value in assay [1] is “A (a compound having 10 or more and less than 20 is denoted as A)”. Moreover, the “HRAS/KRAS (ratio of KD value with respect to GDP-bound HRAS wild-type protein to KD value with respect to KRAS)” value in assay [2] was “A (a compound having 10 or more and less than 20 is denoted as A)”.

On to `CCC[C@H]1C(=O)N[C@@H]([C@@H](C)CC)C(=O)N(C2CC2)CC(=O)N(C)[C@H]2C/C=C\CCN(C2=O)[C@@H](Cc2ccc(C)cc2)C(=O)N(C)CC(=O)N[C@@H](CCc2cc(F)c(Cl)c(OC)c2)C(=O)N2C[C@H](OCC)C[C@H]2C(=O)NC2(CC(C)(C)C2)C(=O)N(C)[C@@H](C2CCCC2)C(=O)N(C)[C@H](C(=O)N(C)C)CC(=O)N1C` [PP2871], for which the “NRAS/KRAS (ratio of KD value with respect to GDP-bound NRAS wild-type protein to KD value with respect to KRAS)” value in assay [1] was “A (a compound having 10 or more and less than 20 is denoted as A)”. For the same molecule, in assay [2], the “HRAS/KRAS (ratio of KD value with respect to GDP-bound HRAS wild-type protein to KD value with respect to KRAS)” value is “A (a compound having 10 or more and less than 20 is denoted as A)”.

As to `CCC[C@H]1C(=O)N[C@@H]([C@@H](C)CC)C(=O)N(C2CC2)CC(=O)N(C)[C@H]2C/C=C\CCN(C2=O)[C@@H](Cc2ccc(C)cc2)C(=O)N(C)CC(=O)N[C@@H](CCc2cc(F)c(CC)c(OC)c2)C(=O)N2C[C@H](OCC)C[C@H]2C(=O)NC2(CC(C)(C)C2)C(=O)N(C)[C@@H](C2CCCC2)C(=O)N(C)[C@H](C(=O)N(C)C)CC(=O)N1C` [PP2872], in assay [1], the “NRAS/KRAS (ratio of KD value with respect to GDP-bound NRAS wild-type protein to KD value with respect to KRAS)” value was “A (a compound having 10 or more and less than 20 is denoted as A)”. Besides, the “HRAS/KRAS (ratio of KD value with respect to GDP-bound HRAS wild-type protein to KD value with respect to KRAS)” value in assay [2] was “A (a compound having 10 or more and less than 20 is denoted as A)”.

Take `CCC[C@H]1C(=O)N[C@@H]([C@@H](C)CC)C(=O)N(C2CC2)CC(=O)N(C)[C@H]2C/C=C\CCN(C2=O)[C@@H](Cc2ccc(C)cc2)C(=O)N(C)CC(=O)N[C@@H](CCc2cc(C)c(C(F)F)c(C)c2)C(=O)N2C[C@H](OCC)C[C@H]2C(=O)NC2(CC(C)(C)C2)C(=O)N(C)[C@@H](C2CCCC2)C(=O)N(C)[C@H](C(=O)N(C)C)CC(=O)N1C` [PP2873]: in assay [1], the “NRAS/KRAS (ratio of KD value with respect to GDP-bound NRAS wild-type protein to KD value with respect to KRAS)” value was “A (a compound having 10 or more and less than 20 is denoted as A)”. Also, in assay [2], the “HRAS/KRAS (ratio of KD value with respect to GDP-bound HRAS wild-type protein to KD value with respect to KRAS)” value was “A (a compound having 10 or more and less than 20 is denoted as A)”.

As for `CCC[C@H]1C(=O)N[C@@H]([C@@H](C)CC)C(=O)N(C2CC2)CC(=O)N(C)[C@H]2C/C=C\CCN(C2=O)[C@@H](Cc2ccc(C)cc2)C(=O)N(C)CC(=O)N[C@@H](CCc2cc(C)c(C(F)F)c(F)c2)C(=O)N2C[C@H](OCC)C[C@H]2C(=O)NC2(CC(C)(C)C2)C(=O)N(C)[C@@H](C2CCCC2)C(=O)N(C)[C@H](C(=O)N(C)C)CC(=O)N1C` [PP2874], the “NRAS/KRAS (ratio of KD value with respect to GDP-bound NRAS wild-type protein to KD value with respect to KRAS)” value in assay [1] is “A (a compound having 10 or more and less than 20 is denoted as A)”. The “HRAS/KRAS (ratio of KD value with respect to GDP-bound HRAS wild-type protein to KD value with respect to KRAS)” value in assay [2] was “A (a compound having 10 or more and less than 20 is denoted as A)”.

For `CCC[C@H]1C(=O)N[C@@H]([C@@H](C)CC)C(=O)N(C2CC2)CC(=O)N(C)[C@H]2C/C=C\CCN(C2=O)[C@@H](Cc2ccc(C)cc2)C(=O)N(C)CC(=O)N[C@@H](CCc2cc(C)c(C(F)F)c(Cl)c2)C(=O)N2C[C@H](OCC)C[C@H]2C(=O)NC2(CC(C)(C)C2)C(=O)N(C)[C@@H](C2CCCC2)C(=O)N(C)[C@H](C(=O)N(C)C)CC(=O)N1C` [PP2875], the “NRAS/KRAS (ratio of KD value with respect to GDP-bound NRAS wild-type protein to KD value with respect to KRAS)” value in assay [1] was “A (a compound having 10 or more and less than 20 is denoted as A)”. Also, the “HRAS/KRAS (ratio of KD value with respect to GDP-bound HRAS wild-type protein to KD value with respect to KRAS)” value in assay [2] was “A (a compound having 10 or more and less than 20 is denoted as A)”.
